Reference: article PMC8703807, “Synthesis of ^68Ga-Labeled cNGR-Based Glycopeptides and In Vivo Evaluation by PET Imaging” (Pharmaceutics, 2021)
Read-outs that look alike come from different tables or passages of the source. Positions of bridges follow the written chain, without caps; N, C: chain ends. Residues, ends and D or L forms follow the SMILES beside them. *: point of attachment. X1 = O=C(O)CN1CCN(CC(=O)O)CCN(C(CCC(=O)NCc2ccc(NC(=S)*)cc2)C(=O)O)CCN(CC(=O)O)CC1

Key:
[1] = Determination of logP value (octanol/water partition coefficient); format: physicochemical
Protocol: The mixture was shaken with a vortex shaker for 5 min and centrifugated (9000 rpm) for 5 min. A 3 × 20 µL amount of both solvents was pipetted into a vial. The radioactivity of the fractions was determined with a gamma counter.

[2] = In vivo PET imaging of B16-F10 melanoma tumor-bearing mice; conditions: C57BL/6, mouse, in vivo, iv, total radioactivity
Protocol: (§1) For subcutaneous B16-F10 (mouse melanoma) tumor induction, C57BL/6 mice (n = 20) were anaesthetized with 3% isoflurane (Forane, AbbVie) using a dedicated small animal anesthesia device (Tec3 Isoflurane Vaporizer, Eickemeyer, UK) and mice were injected subcutaneously with 3 × 10^6 B16-F10 cells in 150 µL of sterile saline into the left shoulder area of the animals. In vivo and ex vivo experiments were carried out 10 ± 1 days after subcutaneous injection of tumor cells at the tumor volume of 80 ± 2 mm^3.
(§2) For in vivo biodistribution studies B16-F10 tumor-bearing mice were anaesthetized with 3% isoflurane and were injected with 6.6 ± 0.3 MBq [^68Ga]-11, or [^68Ga]-3, or [^68Ga]-9 or [^68Ga]-10 in 150 μL saline via the lateral tail vein 10 ± 1 days after subcutaneous injection of tumor cells. 20 min static PET scans were performed 70 min after intravenous injection of the radiotracers from the tumorous area using the preclinical miniPET-II device (University of Debrecen, Faculty of Medicine, Department of Medical Imaging, Division of Nuclear Medicine and Translational Imaging). After image reconstruction, volumes of interest (VOIs) were manually drawn around the examined regions using the BrainCAD image analysis software and quantitative standardized uptake values (SUVs) values were calculated.
(§3) Figure 1 In vivo PET imaging of [^68Ga]-11, [^68Ga]-3, [^68Ga]-9 and [^68Ga]-10 accumulation in B16-F10 tumor-bearing mice 10 ± 1 days after tumor cell inoculation and 70 min after intravenous injection of the radiotracers (A panel). Red arrows: B16-F10 tumor; black arrows: liver. (B,C) panels: quantitative SUVmean and tumor-to-background (muscle) ratio (T/M) analysis of tracer uptake in mice (n = 3/radiopharmaceutical) 70 min post-injection. Significance level: p ≤ 0.05 (*). SUV: standardized uptake value; T/M: tumor-to-muscle ratio. SUV values are presented as mean ± SD.

[3] = system: B16-F10 melanoma tumor-bearing mice; experiment: as above; conditions: 70 min after i.v. injection; for identification of subcutaneous B16-F10 tumors on PET images: qualitative
Protocol: as §1, §2, §3

[4] = system: B16-F10 tumor-bearing mice; conditions: ex vivo, 90 min after injection, compared to the other investigated molecules
Protocol: as §1

[5] = 1-octanol/water, gamma counter, read-out: octanol/water partition coefficient (logP)
[6] = tumor SUVmean, B16-F10 tumor, 70 min after i.v. injection, n = 3, mean ± SD

| logP [1] | SUV at 70 min ([2]; liver SUVmean) [SUV] | SUV at 70 min ([2]; tumor SUVmean) [SUV] | SMILES | logP [1, 5] | tissue to tissue ratio at 70 min [2] | SUV at 70 min ([2]; liver SUVmean, 70 min after i.v. injection, n = 3, mean ± SD) [SUV] | SUV at 70 min [2, 6] [SUV] | identification of subcutaneous B16-F10 tumors on PET images [3] | radioactivity concentration in blood [4] | liver SUVmean ([3]; n = 3, mean ± SD) |
| --- | --- | --- | --- | --- | --- | --- | --- | --- | --- | --- |
|  |  |  | N=C(N)NCCC[C@@H]1NC(=O)CNC(=O)[C@H](CC(N)=O)NC(=O)[C@H](CCCCNC(=O)CCOCCOCCOCCOCCNC(=O)CCC(=O)N2Cc3ccccc3-c3c(nnn3CCCO[C@@H]3O[C@H](CO)[C@@H](O[C@@H]4O[C@H](CO)[C@H](O)[C@H](O)[C@H]4O)[C@H](O)[C@H]3NC(=S)Nc3ccc(CNC(=O)CCC(C(=O)O)N4CCN(CC(=O)O)CCN(CC(=O)O)CCN(CC(=O)O)CC4)cc3)-c3ccccc32)NC(=O)CC[C@@H](C(N)=O)NC1=O (stereo partly shown) [[^68Ga]-10, metal not drawn] | -3.69 | 7.89 ± 1.31 | 0.1 ± 0.02 | 0.15 ± 0.01 | clearly identified | higher radioactivity concentration |  |
| -4.13 | 0.28 ± 0.1 | 0.09 ± 0.03 | N=C(N)NCCC[C@@H]1NC(=O)CNC(=O)[C@H](CC(N)=O)NC(=O)[C@H](CCCCNC(=S)Nc2ccc(CNC(=O)CCC(C(=O)O)N3CCN(CC(=O)O)CCN(CC(=O)O)CCN(CC(=O)O)CC3)cc2)NC(=O)CC[C@@H](C(N)=O)NC1=O (stereo partly shown) [[^68Ga]-11, metal not drawn] (K(X1)NGRE-NH2; lactam N-5) |  | 5.71 ± 1.17 |  |  | clearly identified |  |  |
|  |  |  | N=C(N)NCCC[C@@H]1NC(=O)CNC(=O)[C@H](CC(N)=O)NC(=O)[C@H](CCCCNC(=O)CCC(=O)N2Cc3ccccc3-c3c(nnn3CCCO[C@@H]3O[C@H](CO)[C@@H](O[C@@H]4O[C@H](CO)[C@H](O)[C@H](O)[C@H]4O)[C@H](O)[C@H]3NC(=S)Nc3ccc(CNC(=O)CCC(C(=O)O)N4CCN(CC(=O)O)CCN(CC(=O)O)CCN(CC(=O)O)CC4)cc3)-c3ccccc32)NC(=O)CC[C@@H](C(N)=O)NC1=O (stereo partly shown) [[^68Ga]-9, metal not drawn] | -3.68 | 6.01 ± 1.24 |  | 0.11 ± 0.03 | clearly identified |  | 0.18 ± 0.01 |
